The values that follow come from ChEMBL document CHEMBL1146796, “Design, synthesis and cytotoxic studies on the simplified oxy analog of eleutherobin” (2004).

Assay [1] has as its system HBL-100. The assay can be described thus: Cytotoxic effect against HBL-100 (human breast cancer cell lines) by MTT assay at 100 ug concentration. The format is functional.
Assay [2] relates to HBL-100. The assay can be described thus: (§1) Cytotoxic effect against HBL-100 (human breast cancer cell lines) by MTT assay at 10 ug concentration. It counts as functional, cell-based.
In assay [3] the test system is HBL-100. The description is as §1. It counts as functional.

As to `CC1(C)O[C@@H]2[C@H](O1)[C@@H]1OCc3ccccc3C[C@@H](O)[C@H]2O1`, in assay [1], the Asorbance was 0.081, the Inhibition is recorded as 63.3% and the Viability is 36.69%. The compound further had an Absorbance in assay [2] of 0.153. For the same compound, in assay [3], the Inhibition is on record as 30.62% and the Viability is 69.37%.
